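Grown in 96-well plates, cells were treated for 48 hours with each compound at five concentrations. Insufficient inhibition: endpoint recorded as highest concentration tested. Abbreviation: GI50, concentration required for 50% inhibition of growth.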 The source made the active and inactive calls. Rule as the data show it: active = GI50 up to about 1.1 µM and inactive = higher.
Key:
Experiment in all cases: growth of human tumour cells (NCI), 48 h
RXF 393 = system: RXF 393
NCI-H226 = system: NCI-H226
IGROV-1 = system: IGROV-1
UACC-62 = system: UACC-62
SW-620 = system: SW-620
M19-MEL = system: M19-MEL
NCI-H23 = system: NCI-H23
SK-MEL-2 = system: SK-MEL-2
SK-MEL-28 = system: SK-MEL-28
UO-31 = system: UO-31
COLO 205 = system: COLO 205
SK-MEL-5 = system: SK-MEL-5
KM12 = system: KM12
EKVX = system: EKVX
MOLT-4 = system: MOLT-4
NCI-H522 = system: NCI-H522
LOX IMVI = system: LOX IMVI
DLD-1 = system: DLD-1
OVCAR-8 = system: OVCAR-8
SNB-19 = system: SNB-19
K562 = system: K562
CCRF-CEM = system: CCRF-CEM
M14 = system: M14
SNB-75 = system: SNB-75
NCI-H460 = system: NCI-H460
SF-539 = system: SF-539
XF498 = system: XF498
OVCAR-5 = system: OVCAR-5
DMS-273 = system: DMS-273
UACC-257 = system: UACC-257
TK-10 = system: TK-10
SF-268 = system: SF-268
U-251 = system: U-251
A498 = system: A498
SF-295 = system: SF-295
RPMI-8226 = system: RPMI-8226
HL-60 = system: HL-60
A549 = system: A549
HOP-92 = system: HOP-92
HOP-18 = system: HOP-18
OVCAR-4 = system: OVCAR-4
HCC 2998 = system: HCC 2998
RXF 631 = system: RXF 631
ACHN = system: ACHN
KM-20L2 = system: KM-20L2
Malme-3M = system: Malme-3M
CAKI-1 = system: CAKI-1
HT-29 = system: HT-29
SN12C = system: SN12C
SK-OV-3 = system: SK-OV-3
OVCAR-3 = system: OVCAR-3
786-0 = system: 786-0
LXFL 529 = system: LXFL 529
HCT-15 = system: HCT-15
SNB-78 = system: SNB-78
HCT-116 = system: HCT-116
DMS-114 = system: DMS-114
HOP-62 = system: HOP-62
SR = system: SR

Measured: GI50

O=C(O)CCCNS(=O)(=O)c1ccc2ccccc2c1
> 100 µM: HCT-15
inactive: RXF 393 > 100 µM | NCI-H226 > 100 µM | IGROV-1 > 100 µM | UACC-62 > 100 µM | SW-620 > 100 µM | M19-MEL > 100 µM | NCI-H23 > 100 µM | SK-MEL-2 > 100 µM | SK-MEL-28 > 100 µM | UO-31 > 100 µM | COLO 205 > 100 µM | SK-MEL-5 > 100 µM | KM12 > 100 µM | EKVX > 100 µM | MOLT-4 > 100 µM | NCI-H522 > 100 µM | LOX IMVI > 100 µM | DLD-1 > 100 µM | OVCAR-8 > 100 µM | SNB-19 > 100 µM | K562 > 100 µM | CCRF-CEM > 100 µM | M14 > 100 µM | SNB-75 > 100 µM | NCI-H460 > 100 µM | SF-539 > 100 µM | XF498 > 100 µM | OVCAR-5 > 100 µM | DMS-273 > 100 µM | UACC-257 > 100 µM | TK-10 > 100 µM | SF-268 > 100 µM | U-251 > 100 µM | A498 > 100 µM | SF-295 > 100 µM | RPMI-8226 > 100 µM | HL-60 > 100 µM | A549 > 100 µM | HOP-92 97.7 µM | HOP-18 > 100 µM | OVCAR-4 > 100 µM | HCC 2998 > 100 µM | RXF 631 > 100 µM | ACHN > 100 µM | KM-20L2 > 100 µM | Malme-3M > 100 µM | CAKI-1 > 100 µM | HT-29 > 100 µM | SN12C > 100 µM | SK-OV-3 > 100 µM | OVCAR-3 > 100 µM | 786-0 > 100 µM | LXFL 529 > 100 µM

COC(=O)[C@]12CC=C3O[C@@H]4OC5(CCCCC5)O[C@@H]4C3[C@@H]1C(=O)CCC2=O (stereo not given in full)
> 100 µM: HCT-15
inactive: NCI-H226 > 100 µM | IGROV-1 > 100 µM | UACC-62 > 100 µM | SW-620 > 100 µM | SNB-78 > 100 µM | NCI-H23 > 100 µM | SK-MEL-2 > 100 µM | SK-MEL-28 > 100 µM | UO-31 > 100 µM | COLO 205 > 100 µM | SK-MEL-5 > 100 µM | KM12 > 100 µM | EKVX > 100 µM | MOLT-4 > 100 µM | NCI-H522 83.4 µM | LOX IMVI > 100 µM | DLD-1 > 100 µM | OVCAR-8 > 100 µM | SNB-19 > 100 µM | HCT-116 > 100 µM | K562 > 100 µM | CCRF-CEM > 100 µM | M14 > 100 µM | SNB-75 > 100 µM | NCI-H460 > 100 µM | DMS-114 > 100 µM | XF498 > 100 µM | OVCAR-5 > 100 µM | DMS-273 > 100 µM | UACC-257 > 100 µM | SF-268 > 100 µM | U-251 > 100 µM | A498 > 100 µM | SF-295 > 100 µM | RPMI-8226 > 100 µM | HL-60 > 100 µM | A549 > 100 µM | HOP-92 > 100 µM | HOP-18 > 100 µM | OVCAR-4 > 100 µM | HCC 2998 > 100 µM | RXF 631 > 100 µM | ACHN > 100 µM | KM-20L2 > 100 µM | Malme-3M > 100 µM | HOP-62 > 100 µM | CAKI-1 > 100 µM | HT-29 > 100 µM | SN12C > 100 µM | SK-OV-3 > 100 µM | OVCAR-3 36.5 µM | 786-0 > 100 µM | LXFL 529 > 100 µM

O=C(c1cc2c(C(F)(F)F)onc2c2ccccc12)C(F)(F)F
active: SNB-78 0.236 µM | NCI-H23 0.929 µM | KM12 0.746 µM | DLD-1 0.484 µM | HCT-116 0.0452 µM | K562 0.855 µM | CCRF-CEM 0.34 µM | U-251 0.371 µM | RPMI-8226 0.935 µM | HL-60 0.984 µM | SN12C 0.614 µM | LXFL 529 0.347 µM
inactive: RXF 393 4.3 µM | NCI-H226 3.01 µM | IGROV-1 2.74 µM | UACC-62 2.98 µM | SW-620 2.68 µM | M19-MEL 3.1 µM | SK-MEL-2 3.4 µM | SK-MEL-28 3.44 µM | UO-31 1.7 µM | COLO 205 3.08 µM | SK-MEL-5 4.16 µM | EKVX 7.38 µM | MOLT-4 1.15 µM | NCI-H522 1.78 µM | LOX IMVI 1.63 µM | OVCAR-8 1.78 µM | SNB-19 3.8 µM | M14 3.94 µM | SNB-75 1.16 µM | NCI-H460 1.24 µM | DMS-114 2.15 µM | SF-539 3.75 µM | OVCAR-5 6.9 µM | DMS-273 1.49 µM | UACC-257 5.61 µM | TK-10 7.4 µM | SF-268 2.75 µM | A498 12.7 µM | SF-295 2.58 µM | A549 4.51 µM | HOP-92 1.58 µM | HOP-18 6.47 µM | OVCAR-4 3.65 µM | HCC 2998 4.55 µM | RXF 631 2.38 µM | ACHN 2.89 µM | KM-20L2 1.22 µM | HOP-62 2.44 µM | CAKI-1 2.78 µM | HT-29 3.7 µM | SK-OV-3 12.3 µM | SR 1.41 µM | OVCAR-3 2.22 µM | 786-0 1.93 µM
0.741 µM: HCT-15
